In PubChem BioAssay (NCI):
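Compound exposure: 48 hours, 5 concentrations, 96-well plates. Abbreviation: GI50, concentration required for 50% inhibition of growth. The concentration for full growth arrest is given as TGI.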

What was measured:
Assay in all cases: growth of human tumour cells (NCI), 48 h
[1] = test system: OVCAR-3 ovarian
[2] = test system: NCI/ADR-RES ovarian
[3] = test system: NCI-H522 lung
[4] = test system: A549 NSCLC
[5] = test system: M14 melanoma
[6] = test system: U251 CNS
[7] = test system: T-47D breast
[8] = test system: HCT-15 colon
[9] = test system: DU-145 prostate
[10] = test system: HOP-92 NSCLC
[11] = test system: CCRF-CEM leukemia
[12] = test system: SF-295 CNS
[13] = test system: NCI-H226 lung
[14] = test system: HCC-2998 colon
[15] = test system: BT-549 breast
[16] = test system: MOLT-4 leukemia
[17] = test system: ACHN renal
[18] = test system: HOP-62 NSCLC
[19] = test system: IGROV1 ovarian
[20] = test system: SK-MEL-5 melanoma
[21] = test system: SW-620 colon
[22] = test system: SNB-19 CNS
[23] = test system: SF-268 CNS
[24] = test system: UACC-62 melanoma
[25] = test system: 786-0 renal
[26] = test system: MALME-3M melanoma
[27] = test system: HT29 colon
[28] = test system: MDA-MB-435
[29] = test system: HL-60(TB) leukemia
[30] = test system: OVCAR-8 ovarian
[31] = test system: HS 578T breast
[32] = test system: UO-31 renal
[33] = test system: SF-539 CNS
[34] = test system: COLO 205 colon
[35] = test system: K-562 leukemia
[36] = test system: KM12 colon
[37] = test system: CAKI-1 renal
[38] = test system: SN12C renal
[39] = test system: NCI-H460 lung
[40] = test system: A498 renal
[41] = test system: HCT-116 colon
[42] = test system: MCF7 breast
[43] = test system: SR leukemia
[44] = test system: SK-OV-3 ovarian
[45] = test system: UACC-257 melanoma
[46] = test system: LOX IMVI melanoma
[47] = test system: RXF 393 renal
[48] = test system: SNB-75 CNS
[49] = test system: SK-MEL-28 melanoma
[50] = test system: OVCAR-4 ovarian
[51] = test system: NCI-H23 lung
[52] = test system: OVCAR-5 ovarian
[53] = test system: RPMI-8226 leukemia
[54] = test system: EKVX NSCLC
[55] = test system: SK-MEL-2 melanoma
[56] = test system: PC-3 prostate
[57] = test system: TK-10 renal
[58] = test system: MDA-MB-231 breast

With `COc1ccc(C2=NNC(c3cc(Cc4ccc(O)c(C5CC(c6ccc(OC)cc6)=NN5)c4)ccc3O)C2)cc1` (stereo unspecified) the GI50 [1] was 18.8 µM, the TGI [1] was over 100 µM and the GI50 [2] was 7.39 µM. The TGI [2] was over 100 µM, the GI50 [3] was 3.64 µM and the TGI [3] was 23.4 µM. The GI50 [4] was 6.84 µM, the TGI [4] was over 100 µM and the GI50 [5] was 10.4 µM. It also gave a TGI [5] of 38.3 µM, a GI50 [6] of 5.84 µM and a TGI [6] of over 100 µM. It also gave a GI50 [7] of 4.61 µM, a TGI [7] of over 100 µM and a GI50 [8] of 3.64 µM. The TGI [8] was over 100 µM, the GI50 [9] was 29.8 µM and the TGI [9] was over 100 µM. For the same compound, the GI50 [10] was 8.28 µM, the TGI [10] was over 100 µM and the GI50 [11] was 3.85 µM. It also gave a TGI [11] of over 100 µM, a GI50 [12] of 21.2 µM and a TGI [12] of over 100 µM. For the same compound, the GI50 [13] was 6.08 µM, the TGI [13] was over 100 µM and the GI50 [14] was 46 µM. It also gave a TGI [14] of over 100 µM, a GI50 [15] of 4.66 µM and a TGI [15] of 51.6 µM. For the same compound, the GI50 [16] was 17.8 µM, the TGI [16] was over 100 µM and the GI50 [17] was 5.56 µM. For the same compound, the TGI [17] was over 100 µM, the GI50 [18] was 8.64 µM and the TGI [18] was over 100 µM. It also gave a GI50 [19] of 13.7 µM, a TGI [19] of over 100 µM and a GI50 [20] of 1.76 µM. It also gave a TGI [20] of 6.4 µM, a GI50 [21] of 7.96 µM and a TGI [21] of over 100 µM. For the same compound, the GI50 [22] was 6.89 µM, the TGI [22] was over 100 µM and the GI50 [23] was 17.9 µM. For the same compound, the TGI [23] was over 100 µM, the GI50 [24] was 10.6 µM and the TGI [24] was 99.6 µM. It also gave a GI50 [25] of 8.39 µM, a TGI [25] of 93.4 µM and a GI50 [26] of 48.9 µM. For the same compound, the TGI [26] was over 100 µM, the GI50 [27] was 32.2 µM and the TGI [27] was over 100 µM. The GI50 [28] was 8.52 µM, the TGI [28] was over 100 µM and the GI50 [29] was 23.4 µM. It also gave a TGI [29] of over 100 µM, a GI50 [30] of 6.36 µM and a TGI [30] of over 100 µM. The GI50 [31] was 5.58 µM, the TGI [31] was 68 µM and the GI50 [32] was 4.29 µM. The TGI [32] was over 100 µM, the GI50 [33] was 22.4 µM and the TGI [33] was over 100 µM. The GI50 [34] was 19.4 µM, the TGI [34] was over 100 µM and the GI50 [35] was 7.74 µM. For the same compound, the TGI [35] was over 100 µM, the GI50 [36] was 22.6 µM and the TGI [36] was over 100 µM. The GI50 [37] was 30.2 µM, the TGI [37] was over 100 µM and the GI50 [38] was 8.84 µM. It also gave a TGI [38] of over 100 µM, a GI50 [39] of 4.88 µM and a TGI [39] of over 100 µM. For the same compound, the GI50 [40] was 71.9 µM, the TGI [40] was over 100 µM and the GI50 [41] was 4.11 µM. The TGI [41] was 15.9 µM, the GI50 [42] was 3.3 µM and the TGI [42] was 15 µM. The GI50 [43] was 16.4 µM, the TGI [43] was over 100 µM and the GI50 [44] was 31.6 µM. For the same compound, the TGI [44] was over 100 µM, the GI50 [45] was 25.6 µM and the TGI [45] was over 100 µM. The GI50 [46] was 7.38 µM, the TGI [46] was 32.3 µM and the GI50 [47] was 4.18 µM. It also gave a TGI [47] of 48.3 µM, a GI50 [48] of 4.98 µM and a TGI [48] of over 100 µM. The GI50 [49] was 10.2 µM, the TGI [49] was 34.1 µM and the GI50 [50] was 5.36 µM. It also gave a TGI [50] of over 100 µM, a GI50 [51] of 5.3 µM and a TGI [51] of over 100 µM. The GI50 [52] was 17.1 µM, the TGI [52] was 88 µM and the GI50 [53] was 9.89 µM. It also gave a TGI [53] of over 100 µM, a GI50 [54] of 23.3 µM and a TGI [54] of over 100 µM. It also gave a GI50 [55] of 5.9 µM, a TGI [55] of 29 µM and a GI50 [56] of 61.4 µM. For the same compound, the TGI [56] was over 100 µM, the GI50 [57] was 19.6 µM and the TGI [57] was over 100 µM. It also gave a GI50 [58] of 14.3 µM and a TGI [58] of 83.1 µM.
